Assay results published in ChEMBL document CHEMBL2434909, “In vitro antimalarial activity, β-haematin inhibition and structure-activity relationships in a series of quinoline triazoles” (Eur J Med Chem, 2013).

What was measured:
[1] = Inhibition of NP-40-induced beta-haematin formation after 5 to 6 hrs hrs by UV-vis spectroscopic analysis; format: physicochemical
[2] = tested on: CHO; assay: Cytotoxicity against CHO cells by MTT assay; format: cell-based; settings: Cricetulus griseus

| IC50 [1] | SMILES | IC50 [2] |
| --- | --- | --- |
| 6.8 µM | CCN(CC)Cc1cc(Nc2ccnc3cc(Cl)ccc23)ccc1O | – |
| 18.2 µM | CCN(CC)CCCC(C)Nc1ccnc2cc(Cl)ccc12 (stereo not drawn) [CHLOROQUINE] | – |
| – | CC[C@H]1CN2CCc3cc(OC)c(OC)cc3[C@@H]2C[C@@H]1C[C@H]1NCCc2cc(OC)c(OC)cc21 [EMETINE] | 0.041 µM |
